Where a SMILES comes first, the peptide text is derived from it.
Test: Motilin immunoreactivity concentration in plasma, half-life after intravenous administration (Example 6)
Type: in vivo, rat
Conditions: SD, rat, plasma, 10 nmol/kg, male rats, N = 3, read-out: T½ Mean Value
Description: The experiment was carried out using rats into which polyethylene tube (PE-50 manufactured by Clay Adams) was previously inserted into thigh artery under an anesthetized condition with Nembutal. As to a test system, male SD strain rats (Nippon Charles River) of 7 weeks age were used where one group comprised 3 rats. Human type motilin or a derivative thereof in a dose of 10 nmol/kg was administered into tail vein of the rat and the blood before the administration and until 60 minutes after the administration was collected by a polyethylene tube inserted into the thigh artery. To the collected blood were added EDTA (manufactured by Dojin Laboratories) and aprotinin (manufactured by Bayer) as a stabilizer and an anti-coagulant, respectively and the plasma was separated therefrom by centrifugal separation.

Row | Structure (SMILES) | half-life
1 | CC[C@H](C)[C@H](NC(=O)[C@@H]1CCCN1C(=O)[C@@H](NC(=O)[C@@H](N)Cc1ccccc1)C(C)C)C(=O)N[C@@H](Cc1ccccc1)C(=O)N[C@H](C(=O)N[C@@H](Cc1ccc(O)cc1)C(=O)NCC(=O)N[C@@H](CCC(=O)O)C(=O)N[C@@H](CC(C)C)C(=O)N[C@@H](CCC(N)=O)C(=O)N[C@@H](CCCNC(=N)N)C(=O)N[C@@H](CO)C(=O)N1CCC[C@H]1C(=O)N[C@@H](CCC(=O)O)C(=O)N[C@@H](Cc1c[nH]cn1)C(=O)N[C@@H](CCC(N)=O)C(=O)N[C@@H](CCCNC(=N)N)C(=O)N[C@H](C(=O)N[C@@H](CCC(N)=O)C(=O)N[C@@H](CCC(N)=O)C(=O)N[C@@H](CCCNC(=N)N)C(=O)N[C@@H](CCCCN)C(=O)N[C@@H](CCC(=O)O)C(=O)N[C@@H](CO)C(=O)N[C@@H](CCCCN)C(=O)N[C@@H](CCCCN)C(=O)N1CCC[C@H]1C(=O)N1CCC[C@H]1C(=O)N[C@@H](C)C(=O)N[C@@H](CCCCN)C(=O)N[C@@H](CC(C)C)C(=O)N[C@@H](CCC(N)=O)C(=O)N1CCC[C@H]1C(=O)N[C@@H](CCCNC(=N)N)C(=O)O)C(C)C)[C@@H](C)O [Chimeric motilin (A)] (H-FVPIFTYGELQRSPEHQRVQQRKESKKPPAKLQPR-OH; N-terminus and C-terminus assumed) | 11.7 min
2 | CC[C@H](C)[C@H](NC(=O)[C@@H]1CCCN1C(=O)[C@@H](NC(=O)[C@@H](N)Cc1ccccc1)C(C)C)C(=O)N[C@@H](Cc1ccccc1)C(=O)N[C@H](C(=O)N[C@@H](Cc1ccc(O)cc1)C(=O)NCC(=O)N[C@@H](CCC(=O)O)C(=O)N[C@@H](CC(C)C)C(=O)N[C@@H](CCC(N)=O)C(=O)N[C@@H](CCCNC(=N)N)C(=O)N[C@@H](CCC(=O)O)C(=O)N[C@@H](Cc1c[nH]cn1)C(=O)N[C@@H](CCC(N)=O)C(=O)N[C@@H](CCCNC(=N)N)C(=O)N[C@H](C(=O)N[C@@H](CCC(N)=O)C(=O)N[C@@H](CCC(N)=O)C(=O)N[C@@H](CCCNC(=N)N)C(=O)N[C@@H](CCCCN)C(=O)N[C@@H](CCC(=O)O)C(=O)N[C@@H](CO)C(=O)N[C@@H](CCCCN)C(=O)N[C@@H](CCCCN)C(=O)N1CCC[C@H]1C(=O)N1CCC[C@H]1C(=O)N[C@@H](C)C(=O)N[C@@H](CCCCN)C(=O)N[C@@H](CC(C)C)C(=O)N[C@@H](CCC(N)=O)C(=O)N1CCC[C@H]1C(=O)N[C@@H](CCCNC(=N)N)C(=O)O)C(C)C)[C@@H](C)O [Chimeric motilin (B)] (H-FVPIFTYGELQREHQRVQQRKESKKPPAKLQPR-OH; N-terminus and C-terminus assumed) | 11.1 min
3 | CC[C@H](C)[C@H](NC(=O)[C@@H]1CCCN1C(=O)[C@@H](NC(=O)[C@@H](N)Cc1ccccc1)C(C)C)C(=O)N[C@@H](Cc1ccccc1)C(=O)N[C@H](C(=O)N[C@@H](Cc1ccc(O)cc1)C(=O)NCC(=O)N[C@@H](CCC(=O)O)C(=O)N[C@@H](CC(C)C)C(=O)N[C@@H](CCC(N)=O)C(=O)N[C@@H](CCCNC(=N)N)C(=O)N[C@@H](CCC(N)=O)C(=O)N[C@@H](CCCNC(=N)N)C(=O)N[C@H](C(=O)N[C@@H](CCC(N)=O)C(=O)N[C@@H](CCC(N)=O)C(=O)N[C@@H](CCCNC(=N)N)C(=O)N[C@@H](CCCCN)C(=O)N[C@@H](CCC(=O)O)C(=O)N[C@@H](CO)C(=O)N[C@@H](CCCCN)C(=O)N[C@@H](CCCCN)C(=O)N1CCC[C@H]1C(=O)N1CCC[C@H]1C(=O)N[C@@H](C)C(=O)N[C@@H](CCCCN)C(=O)N[C@@H](CC(C)C)C(=O)N[C@@H](CCC(N)=O)C(=O)N1CCC[C@H]1C(=O)N[C@@H](CCCNC(=N)N)C(=O)O)C(C)C)[C@@H](C)O [Chimeric motilin (C)] (H-FVPIFTYGELQRQRVQQRKESKKPPAKLQPR-OH; N-terminus and C-terminus assumed) | 8.9 min

Test: Motilin immunoreactivity concentration in plasma, half-life after intravenous administration (Example 8)
Conditions: male, SD, rat, in vivo, iv, 10 nmol/kg
Outline: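 Male SD rats (7 weeks, n=3/group) received human motilin or derivative at 10 nmol/kg i.v. via tail vein; arterial blood was sampled up to 60 min, with EDTA and aprotinin added. Plasma motilin immunoreactivity was measured by competitive RIA using a rabbit polyclonal antibody against native motilin residues 1–12 and ^125I-[Tyr^7] human motilin tracer.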

Row | Structure (SMILES) | half-life
4 | CC[C@H](C)[C@H](NC(=O)[C@@H]1CCCN1C(=O)[C@@H](NC(=O)[C@@H](N)Cc1ccccc1)C(C)C)C(=O)N[C@@H](Cc1ccccc1)C(=O)N[C@H](C(=O)N[C@@H](Cc1ccc(O)cc1)C(=O)NCC(=O)N[C@@H](CCC(=O)O)C(=O)N[C@@H](CC(C)C)C(=O)N[C@@H](CCC(N)=O)C(=O)N[C@@H](CCCNC(=N)N)C(=O)N[C@H](C(=O)N[C@@H](CCC(N)=O)C(=O)N[C@@H](CCC(N)=O)C(=O)N[C@@H](CCCCN)C(=O)N[C@@H](CCCCN)C(=O)N[C@@H](C)C(=O)N[C@@H](Cc1ccc(O)cc1)C(=O)N[C@@H](CO)C(=O)N1CCC[C@H]1C(=O)N[C@@H](CC(=O)O)C(=O)N[C@@H](CCCCN)C(=O)N[C@@H](CCC(=O)O)C(=O)N[C@@H](CCCNC(=N)N)C(=O)N[C@@H](CCCCN)C(=O)N1CCC[C@H]1C(=O)N1CCC[C@H]1C(=O)N[C@@H](C)C(=O)N[C@@H](CCCCN)C(=O)N[C@@H](CC(C)C)C(=O)N[C@@H](CCC(N)=O)C(=O)N1CCC[C@H]1C(=O)N[C@@H](CCCNC(=N)N)C(=O)O)C(C)C)[C@@H](C)O [Chimeric motilin (XIII)(MGP2)] (H-FVPIFTYGELQRVQQKKAYSPDKERKPPAKLQPR-OH; N-terminus and C-terminus assumed) | 13.1 min
5 | CC[C@H](C)[C@H](NC(=O)[C@@H]1CCCN1C(=O)[C@@H](NC(=O)[C@@H](N)Cc1ccccc1)C(C)C)C(=O)N[C@@H](Cc1ccccc1)C(=O)N[C@H](C(=O)N[C@@H](Cc1ccc(O)cc1)C(=O)NCC(=O)N[C@@H](CCC(=O)O)C(=O)N[C@@H](CC(C)C)C(=O)N[C@@H](CCC(N)=O)C(=O)N[C@@H](CCCNC(=N)N)C(=O)N[C@H](C(=O)N[C@@H](CCC(N)=O)C(=O)N[C@@H](CCC(N)=O)C(=O)N[C@@H](CCCCN)C(=O)N[C@@H](CCCCN)C(=O)N[C@@H](CO)C(=O)N[C@@H](CCC(=O)O)C(=O)N[C@@H](CCCCN)C(=O)N[C@@H](CCCNC(=N)N)C(=O)N1CCC[C@H]1C(=O)N1CCC[C@H]1C(=O)N[C@@H](C)C(=O)N[C@@H](CCCCN)C(=O)N[C@@H](CC(C)C)C(=O)N[C@@H](CCC(N)=O)C(=O)N1CCC[C@H]1C(=O)N[C@@H](CCCNC(=N)N)C(=O)O)C(C)C)[C@@H](C)O [Chimeric motilin (Y)(MG-BR)] (H-FVPIFTYGELQRVQQKKSEKRPPAKLQPR-OH; N-terminus and C-terminus assumed) | 11.6 min
6 | CC[C@H](C)[C@H](NC(=O)[C@@H]1CCCN1C(=O)[C@@H](NC(=O)[C@@H](N)Cc1ccccc1)C(C)C)C(=O)N[C@@H](Cc1ccccc1)C(=O)N[C@H](C(=O)N[C@@H](Cc1ccc(O)cc1)C(=O)NCC(=O)N[C@@H](CCC(=O)O)C(=O)N[C@@H](CC(C)C)C(=O)N[C@@H](CCC(N)=O)C(=O)N[C@@H](CCCNC(=N)N)C(=O)N[C@H](C(=O)N[C@@H](CCC(N)=O)C(=O)N[C@@H](CCC(N)=O)C(=O)N[C@@H](CCCNC(=N)N)C(=O)N[C@@H](CCCCN)C(=O)NCC(=O)N[C@@H](CCC(=O)O)C(=O)N[C@@H](CO)C(=O)N[C@@H](CCCCN)C(=O)N[C@@H](CCCCN)C(=O)N1CCC[C@H]1C(=O)N1CCC[C@H]1C(=O)N[C@@H](C)C(=O)N[C@@H](CCCCN)C(=O)N[C@@H](CC(C)C)C(=O)N[C@@H](CCC(N)=O)C(=O)N1CCC[C@H]1C(=O)N[C@@H](CCCNC(=N)N)C(=O)O)C(C)C)[C@@H](C)O [Chimeric motilin (Z)(MG-i17G)] (H-FVPIFTYGELQRVQQRKGESKKPPAKLQPR-OH; N-terminus and C-terminus assumed) | 10.5 min

From patent US8551937B2, “Peptide having an extending action for half-life of object peptide in plasma” (priority 2008, dated 2013)
